Measured values as given in publication PMC11642236, “Valorization of Hom Thong Banana Peel (Musa sp., AAA Group) as an Anti-Melanogenic Agent Through Inhibition of Pigmentary Genes and Molecular Docking Study” (International Journal of Molecular Sciences, 2024).
≈ marks a conversion by molar mass, not a printed value.

The molecules below were run against T1, mushroom tyrosinase (assay: L-dopachrome formation, absorbance at […] nm). Conditions: L-DOPA as substrate (diphenolase); 0.1 M phosphate buffer, room temperature, 30 min.
T1 construct: gene PPO3; PDB 2Y9X used only for docking
Type: biochemical, Agaricus bisporus

Row | IC50 Values (mg/mL) / L-DOPA as the Substrate [mg/mL] | SMILES
1 | 4.19 ± 0.15 (≈ 25.5 mM) | O=C(O)/C=C/c1ccccc1O [o-Coumaric acid]
2 | 3.93 ± 0.09 (≈ 20.2 mM) | COc1cc(/C=C/C(=O)O)ccc1O [Ferulic acid]
3 | 3.62 ± 0.08 (≈ 10 mM) | O=C(/C=C/c1ccc(O)c(O)c1)O[C@H](Cc1ccc(O)c(O)c1)C(=O)O [Rosmarinic acid]
4 | 3.44 ± 0.04 (≈ 12.6 mM) | OC[C@H]1O[C@@H](Oc2ccc(O)cc2)[C@H](O)[C@@H](O)[C@@H]1O [Arbutin, reference compound]
5 | 6.42 ± 0.45 (≈ 22.1 mM) | Oc1cc(O)c2c(c1)O[C@H](c1ccc(O)c(O)c1)[C@@H](O)C2 [Catechin]
